Test results reported in US11999697B2, “Methods and compositions for inhibition of dihydroorotate dehydrogenase” (OHIO STATE INNOVATION FOUNDATION, priority 2018, dated 2024).
Read-outs that look alike come from different tables or passages of the source.

Columns and labels:
primary human AML cells [1] = assay: Colony formation (CFU) assay in methocult media; format: cell-based; conditions: 1 μM, 14 days
Procedure: Colony formation (CFU) assays in methocult media: CFU assays can detect an increase or decrease in the frequency of the hematopoietic progenitor proliferation and/or changes in differentiation potential in response to stimulatory, inhibitory or toxic agents. For CFU assays with primary AML cells, cells were cultured overnight in media containing IL-3, GM-CSF, SCF, and FLT3L cytokines at 20 ng/ml. 10-25K primary cells were suspended in MethoCult™ Optimum without EPO which is supplemented with SCF, IL-3, G-CSF, GM-CSF along with vehicle, 1 μM Cpd3 or 1 μM brequinar. After 14 days the total number of colonies was counted and the cells were solubilized from the methocult for cytospin assays described below. […] FIGS. 3A-3B show representative data for colony formation for primary human AML cells in the presence of a representative disclosed compound, Cpd3, compared to a reference compound, brequinar, or vehicle treatment using methods as described herein below. Briefly, primary AML cells were treated with vehicle (DMSO), Cpd3 (1 μM) or brequinar sodium (BQR, 1 μM) and plated in methocult media for 14 days. Results are plotted as the total number of colonies per each condition. Lines connecting data from the same patient sample are shown in order to indicate the trend within a particular sample.

[2] = Pharmacokinetic study, oral dosing at different dose levels; format: in vivo, wild type B6 mice; conditions: for AUC(0-t) / Cmax / Tmax / half-life: B6, mouse, plasma, oral gavage; for AUC(0-t): po
Description: LC-MS/MS Assay Materials: Acetonitrile and methanol were LC-MS grade (Fisher Scientific (Fair Lawn, N.J., USA). Other chemicals were as follows: formic Acid (98%, v/v in water; Fisher Scientific, Fair Lawn, N.J., USA); ammonium acetate (Sigma Aldrich Inc.); water: DDH2O obtained from a Millipore water system; and brequinar was obtained from Sigma. (>99% purity). Solvent A: 0.1% formic acid in water. Solvent B: 0.1% Formic Acid in methanol and acetonitrile. Internal Standard (“IS”) precipitation solution was 150 ng/ml internal standards in acetonitrile: water (3:1, v/v).
Sample preparation: To 10 μL plasma sample was added 100 μL of working IS solution and 20 μL MeOH. Samples were then vortexed for 30 seconds, followed by centrifugation (Eppendorf 5415 R centrifuge) at 10,000 rpm for 8 minutes at 4° C. Supernatant of each sample was transferred into an autosampler vial and sealed with rubber/Teflon crimp cap. Sample volume that was injected onto HPLC was 5 μL. The calibrations samples were prepared at a test compound concentration of 1000, 500, 250, 100, 50, 10, 5 ng/mL in mouse plasma. The quality control samples were as follows: QC1=750 ng/mL, OC2=75 ng/mL, QC3=25 ng/mL, LLOQ=5 ng/mL.
HPLC Parameters: Accucore Vanquish C18 column (100×2.1 mm, dp=1.5 μm) used in a Vanquish UHPLC system, using a XBridge® BEH C18, 5-μm guard column. Mobile phase: gradient as provided below in Table 8 below. Column temperature: 40° C.±5° C.; Autosampler temperature: 10° C.±5° C. Flow rate: 0.4 ml/min. run time: 5.0 min.
The mass spectrometer used was a TSQ Quantiva (Thermo Fisher Scientific).
FIGS. 14A-14C show representative pharmacokinetic data obtained following administration of a representative disclosed compound, Cpd3, via oral dosing at different dose levels carried out using the methods described herein below in Examples. Briefly, wild type B6 mice were administered a single dose of Cpd3 by oral gavage at increasing concentrations (10, 25, 50 and 75 mg/kg). Blood plasma was sampled at 15, 30 and 60 minutes, and 2, 6 and 24 hours.

primary human AML cells [3] = assay: MTS assay in primary AML cells on HS5 stromal cells; format: cell-based; conditions: 96 hours
Procedure: Triplicate wells were set up for each condition.
Cpd3 efficacy was assessed in primary AML samples. Due to the poor in vitro viability of primary cells, these assays were performed in the presence of a support layer of human bone marrow stromal cells (HS5). Cells were treated with Cpd3 or BQR for 96 hours, followed by viability using an MTS assay. FIGS. 2A-2B show representative data for proliferation of primary human AML cells in the presence of a representative disclosed compound, Cpd3, compared to a reference compound, brequinar (BQR), using a MTS cell proliferation assay as described herein below. Briefly, primary AML cells were cultured in the presence human bone marrow stromal cells, and were treated with vehicle (DMSO), or varying doses of Cpd3 or brequinar sodium (BQR) for 96 hours. Cell growth was determined at 96 hours relative to the vehicle (DMSO) control using an MTS assay (N=6 primary AML samples). […] The IC50 values determined were variable, with an […] of about 0.2 μM in some samples. However, in other primary cell samples an IC50 could not be determined (FIG. 2A).

**Q.** Which “growth in methocult colony forming unit (CFU) assays” value (primary human AML cells [1]) does the source give for `CCOc1ccc(-c2ccc(-c3cc(C(=O)O)c4cc(F)ccc4n3)cc2)cc1` [Cpd3, 2-(4′-ethoxy-[1,1′-biphenyl]-4-yl)-6-fluoroquinoline-4-carboxylic acid] here?
**A.** decreased growth

**Q.** What about the AUC(0-t) ([2]; 10 mg/kg, 10 mg/kg, read-out: AUC0-6) of the same compound?
**A.** 47 ± 0.92 µg·h/mL

**Q.** And the AUC(0-t) ([2]; 10 mg/kg, 10 mg/kg, read-out: AUC0-24)?
**A.** 66.7 ± 6.17 µg·h/mL

**Q.** What about the AUC(0-t) ([2]; 25 mg/kg, 25 mg/kg, read-out: AUC0-6) of the same compound?
**A.** 101 ± 38 µg·h/mL

**Q.** What about the AUC(0-t) ([2]; 25 mg/kg, 25 mg/kg, read-out: AUC0-24) of the same compound?
**A.** 171 ± 34.2 µg·h/mL

**Q.** And the AUC(0-t) ([2]; 50 mg/kg, 50 mg/kg, read-out: AUC0-6)?
**A.** 333 ± 47.1 µg·h/mL

**Q.** What about the AUC(0-t) ([2]; 50 mg/kg, 50 mg/kg, read-out: AUC0-24) of the same compound?
**A.** 480 ± 62.1 µg·h/mL

**Q.** What about the AUC(0-t) ([2]; 75 mg/kg, 75 mg/kg, read-out: AUC0-6) of the same compound?
**A.** 531 ± 103 µg·h/mL

**Q.** What about the AUC(0-t) ([2]; 75 mg/kg, 75 mg/kg, read-out: AUC0-24) of the same compound?
**A.** 786 ± 39.3 µg·h/mL

**Q.** And the Cmax ([2]; 10 mg/kg)?
**A.** 18.6 ± 0.93 µg/mL

**Q.** What about the Tmax ([2]; 10 mg/kg) of the same compound?
**A.** 0.83 ± 0.29 h

**Q.** And the half-life ([2]; 10 mg/kg)?
**A.** 3.4 ± 0.3 h

**Q.** And the Cmax ([2]; 25 mg/kg)?
**A.** 35.9 ± 12.5 µg/mL

**Q.** And the Tmax ([2]; 25 mg/kg)?
**A.** 0.67 ± 0.29 h

**Q.** And the half-life ([2]; 25 mg/kg)?
**A.** 6.05 ± 1.97 h

**Q.** And the Cmax ([2]; 50 mg/kg)?
**A.** 93.2 ± 18 µg/mL

**Q.** What about the Tmax ([2]; 50 mg/kg) of the same compound?
**A.** 0.67 ± 0.29 h

**Q.** What about the half-life ([2]; 50 mg/kg) of the same compound?
**A.** 3.23 ± 0.77 h

**Q.** And the Cmax ([2]; 75 mg/kg)?
**A.** 115 ± 8.99 µg/mL

**Q.** What about the Tmax ([2]; 75 mg/kg) of the same compound?
**A.** 0.75 ± 0.35 h

**Q.** And the half-life ([2]; 75 mg/kg)?
**A.** 2.76 ± 0.3 h

**Q.** What about the “relationship between dose and exposure” value ([2]; oral gavage, 10, 25, 50 and 75 mg/kg) of the same compound?
**A.** linear relationship between dose and exposure

**Q.** And the “IC60 in primary AML samples” value (primary human AML cells [3]; HS5 stromal support, some samples)?
**A.** about 0.2 μM

**Q.** What about the “growth of primary AML cells” value (primary human AML cells [3]; N=6 primary AML samples) of the same compound?
**A.** decreases growth of primary AML cells comparable to the reference compound
